Results as given in patent publication US8664391B2, “Amide compounds as boosters of antivirals” (Janssen R&D Ireland Ltd, priority 2008, dated 2014).
Read-outs that look alike come from different tables or passages of the source.

Assays:
[1] = system: wild-type HIV-1 IIIB strain; experiment: Antiviral activity in MT4 LTR-EGFP cellular assay; type: cell-based; details: read-out: Antiviral Activity IIIB pEC50 (converted)
Method: (§1) Assay 1 &2: Antiviral Activity/Toxicity
The compounds of the present invention were tested for antiviral activity in a cellular assay, which was performed according to the following procedure.
The human T-cell line MT4 is engineered with Green Fluorescent Protein (GFP) and an HIV-specific promoter, HIV-1 long terminal repeat (LTR). This cell line is designated MT4 LTR-EGFP, and can be used for the in vitro evaluation of anti-HIV activity of investigational compounds. In HIV-1 infected cells, the Tat protein is produced which upregulates the LTR promotor and finally leads to stimulation of the GFP reporter production, allowing measuring ongoing HIV-infection fluorometrically.
(§2) The ratio of CC50 to EC50 is defined as the selectivity index (SI) and is an indication of the selectivity of the anti-HIV activity of the inhibitor. The ultimate monitoring of HIV-1 infection and cytotoxicity is done using a scanning microscope. Image analysis allows very sensitive detection of viral infection. Measurements are done before cell necrosis, which usually takes place about five days after infection, in particular measurements are performed three days after infection.
A pEC50 value corresponds to −log10(EC50). A pCC50 value corresponds to −log10(CC50).

[2] = target: T1, CYP1A2 (Homo sapiens, UniProt P05177); experiment: CYP450 inhibition, fluorescent substrate assay, CYP1A2; type: biochemical; details: substrate CEC 5 μM, read-out: 1A2-CEC % inh.
T1 construct: host or cells: E. coli
T1 sequence (P05177 1-516): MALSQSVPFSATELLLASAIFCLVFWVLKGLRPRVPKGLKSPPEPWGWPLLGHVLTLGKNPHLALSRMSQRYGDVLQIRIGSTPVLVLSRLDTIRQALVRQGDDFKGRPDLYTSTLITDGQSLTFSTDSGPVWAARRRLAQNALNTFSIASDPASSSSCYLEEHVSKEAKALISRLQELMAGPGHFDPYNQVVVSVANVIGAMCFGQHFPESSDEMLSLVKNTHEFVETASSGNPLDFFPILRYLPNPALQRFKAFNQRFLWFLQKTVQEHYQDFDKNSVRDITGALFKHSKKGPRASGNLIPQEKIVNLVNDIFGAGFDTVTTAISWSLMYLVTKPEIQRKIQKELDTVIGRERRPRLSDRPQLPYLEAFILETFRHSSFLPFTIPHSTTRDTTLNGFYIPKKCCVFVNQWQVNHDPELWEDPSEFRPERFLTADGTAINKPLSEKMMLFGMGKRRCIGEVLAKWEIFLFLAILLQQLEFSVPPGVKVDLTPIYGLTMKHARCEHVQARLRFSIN
Method: (§3) Assay 4: CYP450 Inhibition […] This fluorescent molecule was measured using a fluorescent plate reader (Victor2 (Wallac) or Fluoroskan (Labsystems)). Compounds inhibiting the enzymatic reaction will result in a decrease of fluorescent signal. CYP P450 enzymes were prepared in house or commercially bought and stored at −80° C. [table] The assay was performed in black 96 well Costar plates. Test compounds were added to a CYP P450 enzyme solution in the presence of an NADPH generating system. After 5 min of preincubation at 37° C., the freshly prepared, phosphate buffered (pH 7.4) substrate solution was added. Known CYP P450 inhibitors were used as positive controls, negative controls were run without CYP P450 enzyme. For final reaction mixture concentrations, see Table 6. […] Then, the reaction was stopped by the addition of 200 μl acetonitrile, and the fluorescent signal was detected. [table] […] Inhibition of TMC114 Metabolisation

[3] = target: T2, CYP2D6 (Homo sapiens, UniProt P10635); experiment: CYP450 inhibition, fluorescent substrate assay, CYP2D6; type: biochemical; details: substrate AMMC 3 μM, read-out: 2D6-AMMC % inh.
T2 construct: host or cells: E. coli
Method: as §3

[4] = Cytotoxicity in mock-infected MT4 CMV-EGFP cells; type: cell-based; details: human, pCC50 = -log10(CC50), read-out: Toxicity MT4 pCC50 (converted)
Excerpt: as §1
Analogously, MT4 cells are engineered with GFP and the constitutional cytomegalovirus (CMV) promotor. This cell line is designated MT4 CMV-EGFP, and can be used for the in vitro evaluation of cytotoxicity of investigational compounds. In this cell line, GFP levels are comparably to those of infected MT4 LTR-EGFP cells. Cytotoxic investigational compounds reduce GFP levels of mock-infected MT4 CMV-EGFP cells.
as §2, with “Effective concentration values such as 50% effective concentration (EC50) can be determined and are usually expressed in μM. An EC50 value is defined as the concentration of test compound that reduces the fluorescence of HIV-infected cells by 50%. The 50% cytotoxic concentration (CC50 in μM) is defined as the concentration of test compound that reduces fluorescence of the mock-infected cells by 50%. The ratio” for “The ratio”
Table 2 lists pEC50 values against the wild-type HIV-1 IIIB strain as well as pCC50 values for a selected number of compounds of the invention. A pEC50 value corresponds to −log10(EC50). A pCC50 value corresponds to −log10(CC50).

[5] = target: CYP2C9 (Homo sapiens, UniProt P11712); experiment: CYP450 inhibition, fluorescent substrate assay, CYP2C9; type: biochemical
Method: as §3

[6] = in vitro; type: in vitro ADME, human; details: pH 7.4
Excerpt: Assay 3: Metabolic Stability of Test Compounds (HLM15′)
Sub-cellular tissue preparations are made according to Gorrod et al. (Xenobiotica, 5, pp. 453-462 (1975)) by centrifugal separation after mechanical homogenization of tissue. Human liver tissue is rinsed in ice-cold 0.1 M Tris-HCl (pH 7.4) buffer to wash excess blood. Tissue is then blotted dry, weighed and chopped coarsely using surgical scissors. The tissue pieces are homogenized in 3 volumes of ice-cold 0.1 M phosphate buffer (pH 7.4) using either a Potter-S (Braun, Italy) equipped with a Teflon pestle or a Sorvall Omni-Mix homogenizer, for 7×10 sec. In both cases, the vessel is kept in/on ice during the homogenization process. Tissue homogenates are centrifuged at 9000×g for 20 min at 4° C. using a Sorvall centrifuge or Beckman Ultracentrifuge. The resulting supernatant can be stored at −80° C. and is designated ‘S9’. The S9 fraction is centrifuged at 100,000×g for 60 min at 4° C. using a Beckman ultracentrifuge. The resulting supernatant is carefully aspirated, aliquoted and designated ‘cytosol’. The pellet is re-suspended in 0.1 M phosphate buffer (pH 7.4) in a final volume of 1 ml per 0.5 g original tissue weight and designated ‘microsomes’. All sub-cellular fractions are aliquoted, immediately frozen in liquid nitrogen and stored at −80° C. until use.
Heat-inactivated (10 min at 95° C.) ‘S9’ or microsomes were used for blank experiments. Reaction mixtures were incubated at 37° C. for 5 min, after which the reaction was started by the addition of 0.8 mM β-NADP. The reaction was incubated for 0 or 15 min. Next, the reaction was stopped by addition of 2 volumes of DMSO (or acetonitrile). Samples were centrifuged (10 min, 900×g) and analyzed by LC-MS.

[7] = target: T3, CYP2C19 (Homo sapiens, UniProt P33261); experiment: CYP450 inhibition, fluorescent substrate assay, CYP2C19; type: biochemical; details: substrate CEC 25 μM, read-out: 2C19-CEC % inh.
T3 construct: host or cells: E. coli
Method: as §3

[8] = target: T4, CYP3A4 (Homo sapiens, UniProt P08684); experiment: CYP450 inhibition, fluorescent substrate assay, CYP3A4; type: biochemical; details: 10 μM test compound; for inhibition at 10 min, 10 μM: E. coli expressed CYP3A4, pH 7.4, probe DBF (1 μM), substrate DBF 1 μM, read-out: 3A4-DBF % inh.
T4 construct: host or cells: E. coli
Method: as §3

[9] = Human immunodeficiency virus 1, 72 h, wild-type HIV-1 IIIB, MT4 LTR-EGFP cells, three days after infection, pEC50 = -log10(EC50)
[10] = E. coli expressed CYP1A2, pH 7.4, probe CEC (5 μM), 10 μM test compound
[11] = E. coli expressed CYP2D6, pH 7.4, probe AMMC (3 μM), 10 μM test compound
[12] = E. coli expressed CYP2C19, pH 7.4, probe CEC (25 μM), 10 μM test compound
[13] = E. coli expressed CYP3A4, pH 7.4, probe BFC (150 μM), substrate BFC 150 μM, read-out: 3A4-BFC % inh.
[14] = E. coli expressed CYP3A4, pH 7.4, probe BQ (60 μM), substrate BQ 60 μM, read-out: 3A4-BQ % inh.

Chain of CYP2C9 (P11712 whole entry): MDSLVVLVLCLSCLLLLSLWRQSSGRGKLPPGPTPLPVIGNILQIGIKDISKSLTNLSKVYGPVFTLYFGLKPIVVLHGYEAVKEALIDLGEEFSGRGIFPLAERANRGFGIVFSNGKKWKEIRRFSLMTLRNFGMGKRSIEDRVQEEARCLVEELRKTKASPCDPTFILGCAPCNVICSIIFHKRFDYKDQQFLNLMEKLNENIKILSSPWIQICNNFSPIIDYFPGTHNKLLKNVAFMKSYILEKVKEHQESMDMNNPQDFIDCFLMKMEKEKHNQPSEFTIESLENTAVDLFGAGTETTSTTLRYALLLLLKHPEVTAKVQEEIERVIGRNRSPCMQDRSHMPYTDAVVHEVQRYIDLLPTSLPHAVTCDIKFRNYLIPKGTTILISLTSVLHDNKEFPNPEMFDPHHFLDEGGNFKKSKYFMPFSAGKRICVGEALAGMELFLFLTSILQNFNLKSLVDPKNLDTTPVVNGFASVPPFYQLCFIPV
T3 sequence (P33261 whole entry): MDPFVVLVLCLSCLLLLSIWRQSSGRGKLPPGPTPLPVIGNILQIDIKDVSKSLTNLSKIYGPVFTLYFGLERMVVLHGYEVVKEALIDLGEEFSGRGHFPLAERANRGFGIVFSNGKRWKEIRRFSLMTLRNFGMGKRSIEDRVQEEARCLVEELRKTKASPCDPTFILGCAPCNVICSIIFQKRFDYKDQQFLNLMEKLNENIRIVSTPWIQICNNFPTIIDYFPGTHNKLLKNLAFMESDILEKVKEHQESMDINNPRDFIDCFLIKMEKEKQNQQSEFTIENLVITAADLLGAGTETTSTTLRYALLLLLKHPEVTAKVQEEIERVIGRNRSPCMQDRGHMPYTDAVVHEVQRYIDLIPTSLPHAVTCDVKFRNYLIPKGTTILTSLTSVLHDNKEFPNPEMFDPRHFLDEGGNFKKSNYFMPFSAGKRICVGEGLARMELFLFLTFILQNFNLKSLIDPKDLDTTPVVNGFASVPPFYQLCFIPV
T4 sequence (P08684 whole entry): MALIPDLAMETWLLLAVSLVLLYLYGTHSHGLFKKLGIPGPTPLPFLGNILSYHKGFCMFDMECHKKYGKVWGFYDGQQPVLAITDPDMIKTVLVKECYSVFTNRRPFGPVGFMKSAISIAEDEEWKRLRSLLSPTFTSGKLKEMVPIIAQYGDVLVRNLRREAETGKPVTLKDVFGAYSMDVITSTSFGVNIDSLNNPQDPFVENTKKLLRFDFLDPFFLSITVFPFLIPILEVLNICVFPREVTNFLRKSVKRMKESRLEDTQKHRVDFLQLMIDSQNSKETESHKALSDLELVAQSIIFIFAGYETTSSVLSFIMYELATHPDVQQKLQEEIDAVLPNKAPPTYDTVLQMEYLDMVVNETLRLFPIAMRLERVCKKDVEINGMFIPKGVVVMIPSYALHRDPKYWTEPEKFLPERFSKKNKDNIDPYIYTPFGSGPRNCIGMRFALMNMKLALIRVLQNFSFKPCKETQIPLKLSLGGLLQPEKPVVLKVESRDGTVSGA
T2 sequence (P10635 whole entry): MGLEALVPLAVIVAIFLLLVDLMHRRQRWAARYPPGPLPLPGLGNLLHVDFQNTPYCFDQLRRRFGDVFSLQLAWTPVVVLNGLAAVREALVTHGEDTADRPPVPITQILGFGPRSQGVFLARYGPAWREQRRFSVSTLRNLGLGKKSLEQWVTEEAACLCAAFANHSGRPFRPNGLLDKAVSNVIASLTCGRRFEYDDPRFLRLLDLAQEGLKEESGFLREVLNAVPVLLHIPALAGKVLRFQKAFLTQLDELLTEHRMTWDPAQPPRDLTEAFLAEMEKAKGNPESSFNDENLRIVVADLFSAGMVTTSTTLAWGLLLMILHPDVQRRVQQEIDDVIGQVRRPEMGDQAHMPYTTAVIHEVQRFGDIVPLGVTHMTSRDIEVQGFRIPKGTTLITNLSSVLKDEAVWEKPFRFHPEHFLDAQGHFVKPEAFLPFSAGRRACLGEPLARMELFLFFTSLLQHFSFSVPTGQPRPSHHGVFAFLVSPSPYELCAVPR

| SMILES | EC50 ([1]; Human immunodeficiency virus 1, IIIB, 72 h) [µM] | inhibition at 15 min, 10 μM ([2]; pH 7.4, 10 μM test compound) [%] | inhibition at 45 min, 10 μM ([3]; pH 7.4, 10 μM test compound) [%] | CC50 at 3 days [4] [µM] | inhibition at 30 min, 10 μM ([5]; pH 7.4, 10 μM test compound, substrate MFC 200 μM, 30 min, read-out: 2C9-MFC % inh.) [%] | recovery at 15 min, 5 μM ([6]; human liver microsomes 1 mg/ml, 5 μM test compound, 15 min, 37° C., read-out: % recovery HLM15) [%] | inhibition at 30 min, 10 μM ([7]; pH 7.4, 10 μM test compound) [%] | EC50 [1, 9] [µM] | inhibition at 15 min, 10 μM [2, 10] [%] | inhibition at 45 min, 10 μM [3, 11] [%] | recovery at 15 min, 5 μM ([6]; human) [%] | inhibition at 30 min, 10 μM [7, 12] [%] | inhibition at 30 min, 10 μM [8, 13] [%] | inhibition at 30 min, 10 μM [8, 14] [%] | inhibition at 10 min, 10 μM [8] [%] | inhibition at 30 min, 10 μM ([5]; pH 7.4) [%] |
| --- | --- | --- | --- | --- | --- | --- | --- | --- | --- | --- | --- | --- | --- | --- | --- | --- |
| CC(C)CN(C[C@@H](O)[C@H](Cc1ccccc1)NC(=O)OCc1cncs1)C(=O)c1ccc2c(c1)OCO2 [Compound C1] | 47.9 | 36 | 73 | 57.5 | 97 | 56 | 94 | – | – | – | – | – | – | – | – | – |
| CC(C)CN(C[C@@H](O)[C@H](Cc1ccccc1)NC(=O)OCc1cncs1)C(=O)c1ccc2occc2c1 [Compound C2] | – | – | – | 45.7 | – | – | – | 44.7 | 40 | 102 | 67 | 98 | – | – | – | – |
| Cc1ccc(C(=O)N(CC(C)C)C[C@@H](O)[C@H](Cc2ccccc2)NC(=O)OCc2cncs2)cc1 [Compound C3] | – | – | – | 70.8 | – | – | – | 52.5 | 20 | 49 | 54 | 90 | 95 | 85 | 97 | 99 |
| CC(C)CN(C[C@@H](O)[C@H](Cc1ccccc1)NC(=O)OCc1cncs1)C(=O)c1ccc(C(F)(F)F)cc1 [Compound C4] | – | – | – | 39.8 | – | – | – | 31.6 | 62 | 79 | 57 | 92 | 95 | 85 | 99 | 99 |
| COc1ccc(C(=O)N(CC(C)C)C[C@@H](O)[C@H](Cc2ccccc2)NC(=O)OCc2cncs2)cc1 [Compound C5] | – | – | – | 87.1 | – | – | – | 85.1 | 14 | 41 | 83 | 86 | 92 | 82 | 92 | 94 |
| CC(C)CN(C[C@@H](O)[C@H](Cc1ccccc1)NC(=O)OCc1cncs1)C(=O)c1ccc(F)cc1 [Compound C6] | – | – | – | > 100 | – | – | – | 79.4 | 41 | 65 | 81 | 94 | 82 | 83 | 92 | 96 |
| COc1cccc(C(=O)N(CC(C)C)C[C@@H](O)[C@H](Cc2ccccc2)NC(=O)OCc2cncs2)c1 [Compound C7] | – | – | – | 70.8 | – | – | – | 83.2 | 13 | 45 | 56 | 89 | 92 | 80 | 94 | 97 |
| CC(C)CN(C[C@@H](O)[C@H](Cc1ccccc1)NC(=O)OCc1cncs1)C(=O)c1cccc(F)c1 [Compound C19] | – | – | – | > 100 | – | – | – | – | 43 | 53 | 69 | 77 | – | – | – | 93 |
| CC(C)(O)CN(C[C@@H](O)[C@H](Cc1ccccc1)NC(=O)OCc1cncs1)C(=O)c1ccncc1 [Compound C26] | – | – | – | > 100 | – | – | – | – | 0 | 30 | 92 | 35 | 95 | 77 | 84 | 82 |
